Laboratory results published in patent publication EP4534528A1, “NOVEL SULFANONE DERIVATIVE OR PHARMACEUTICALLY ACCEPTABLE SALT THEREOF, AND USE THEREOF” (Korea Institute of Science and Technology, priority 2022, dated 2023).
Counter-ions that a name gives are not always drawn. Like-named read-outs stand apart in the source and are kept apart here. Blank lines part the entries; values can stand above or below the molecule they belong to.

Experiments:
[1] = tested on: Nrf2; assay: Nrf2 functional cell-based assay (DiscoveRx); conditions: U2OS cells, incubated for 6 hours, luminescence; read-out: Nrf2 activation EC50
[2] = in vitro; assay type: in vitro ADME, Human; conditions: for remaining at 0.5 h, 1 µM: human, pH 6.4, liver microsomes 0.5 mg/mL, 30 minutes at 37°C
[3] = Metabolic stability in liver microsomes; assay type: in vitro ADME; conditions: mouse, pH 6.4, 30 minutes at 37°C
[4] = tested on: NO (nitric oxide); assay: NO (nitric oxide) inhibitory activity in LPS-treated BV-2 microglial cells; assay type: cell-based, mouse; conditions: for activity at 10 µM / activity at 0.1 µM / activity at 1 µM: Mus musculus; for activity at 10 µM: read-out: Amount of NO (% of control) 10 µM; for activity at 0.1 µM: read-out: Amount of NO (% of control) 0.1 µM; for activity at 1 µM: read-out: Amount of NO (% of control) 1 µM
[5] = tested on: U2OS cells; conditions: known from the literature; cited from earlier work
[6] = background statement; cited from earlier work
[7] = not told; cited from earlier work
[8] = Metabolic stability in liver microsomes; assay type: in vitro ADME; conditions: rat, pH 6.4, 30 minutes at 37°C
Method: Then, an NADPH regeneration system solution was added thereto and the mixed solution was incubated at 37°C for 30 minutes. […]

[9] = 10 µM compound, BV-2 cells, LPS 1 µg/ml, 24 hours

Molecule: COC(=O)/C=C/C(=O)OC [DMF, Dimethyl fumarate]
EC50 [1]: 4330 nM

Molecule: COc1ccccc1S(=O)(/C=C/c1ccccc1Cl)=NC#N (stereo not drawn) [Compound 1-57, (E)-N-((2-chlorostyryl)(2-methoxyphenyl)(oxo)-λ^6-sulfanylidene)cyanamide]
EC50 [1]: 75 nM

remaining at 0.5 h, 1 µM [2]: 66%
remaining at 0.5 h, 1 µM [3]: 4.5%
Molecule: O=S(=O)(/C=C/c1ncccc1Cl)c1ccccc1Cl

Molecule: N=S(=O)(/C=C/c1cccnc1)c1ccccc1Cl (stereo not drawn) [Compound 1-12, (E)-(2-chlorophenyl)(imino)(2-(pyridin-3-yl)vinyl)-λ^6-sulfanone]
activity at 10 µM [4, 9]: 24.8%

Molecule: N=S(=O)(/C=C/c1ncccc1F)c1ccccc1Cl (stereo not drawn) [Compound 1-3, (E)-(2-chlorophenyl)(2-(3-fluoropyridin-2-yl)vinyl)(imino)-λ^6-sulfanone]
activity at 0.1 µM ([4]; BV-2, 24 h): 90.9%
activity at 1 µM ([4]; BV-2, 24 h): 51.4%
activity at 10 µM ([4]; BV-2, 24 h): < 3%

EC50 [1]: 3280 nM
Molecule: (E)-(2-chlorophenyl)(imino)(2-(2,4,6-trichloropyrimidin-5-yl)vinyl)-λ^6-sulfanone [Compound 1-14]
Amount of NO (% of control) 10 µM [4, 9]: < 3.00 % of control

amount of drug remaining after incubation with microsomes (in words) ([2]; 30 minutes): remained at a high concentration
remaining at 0.5 h, 1 µM [2]: 76%
remaining at 0.5 h, 1 µM [3]: 59%
Molecule: COc1ccc(S(=N)(=O)/C=C/c2ccccn2)cc1 (stereo not drawn) [Compound 1-2, (E)-imino(4-methoxyphenyl)(2-(pyridin-2-yl)vinyl)-λ^6-sulfanone]

Molecule: C[Si](C)(C)N=S(=O)(/C=C/c1ccccc1Cl)c1ccncc1F (stereo not drawn) [Compound 1-46, (E)-(2-chlorostyryl)(3-fluoropyridin-4-yl)((trimethylsilyl)imino)-λ^6-sulfanone]
EC50 [1]: 120 nM

Molecule: C[S+]([O-])CCCCN=C=S (stereo not drawn) [Sulforaphane, 1-isothiocyanato-4-methylsulfinylbutane]
activity at 0.1 µM ([4]; 0.1 µM compound, BV-2 cells, LPS 1 µg/ml, 24 hours): 107%
activity at 1 µM ([4]; 1 µM compound, BV-2 cells, LPS 1 µg/ml, 24 hours): 79.9%
activity at 10 µM [4, 9]: 14.9%
concentrations at which high toxicity is exhibited [5]: ≥ 5 µM
time until it disappears when administered to the body [6]: ≤ 1 h
blood-brain barrier permeability [7]: very low

Molecule: COc1cccc(S(=N)(=O)/C=C/c2ncccc2F)c1 (stereo not drawn) [Compound 1-7, (E)-(2-(3-fluoropyridin-2-yl)vinyl)(imino)(3-methoxyphenyl)-λ^6-sulfanone]
activity at 10 µM ([4]; BV-2, 24 h): 1.48%

remaining at 0.5 h, 1 µM [2]: 72%
remaining at 0.5 h, 1 µM [3]: 19%
remaining at 0.5 h, 1 µM [8]: 23%
Molecule: O=S(=O)(/C=C/c1ncccc1Cl)c1ccccc1F
